According to US5811078A, “Spray formulations of antihyperalgesic opiates and method of treating topical hyperalgesic conditions therewith” (Adolor Corporation, priority 1997, dated 1998):
Structures can show the parent of a compound that is named as a salt. Where two headings read alike, the source gives them in different places.

Experiments:
[1] = Peripheral selectivity: ratio of ED50 in the tail-withdrawal assay over ED50 in the anti-diarrheal (castor oil) assay; assay type: in vivo, female Wistar rats
Description: The cut off time is 15 seconds. […] After each determination the tail is carefully dried.
Each animal is kept in an individual cage.

central nervous system = conditions: reported prior use, antidiarrheal formulations, hydrochloride, cited from earlier work

Structure (SMILES)	Peripheral Selectivity (ED50tw/ED50 Castor Oil) ([1]; po)	other results
O=C(N1CCCC1)C(CCN1CCC(O)(c2ccccc2)CC1)(c1ccccc1)c1ccccc1 [Compound 9, 1-[4-(4-Hydroxy-4phenyl-1piperidino)-2,2-diphenylbutyryl]pyrrolidine]	437	–
CN(C)C(=O)C(CCN1CCC(O)(c2ccc(Cl)cc2)CC1)(c1ccccc1)c1ccccc1 [loperamide, 4-(p-chlorophenyl)-4-hydroxy-N-N-dimethyl-αα-diphenyl-1-piperidinebutyramide hydrochloride]	–	CNS effects (central nervous system): devoid of CNS effects; CNS effects (central nervous system; listed as Loperamide HCl): completely free of the undesirable CNS effects
O=C(N1CCCC1)C(CCN1CCC(O)(c2ccc(Cl)cc2)CC1)(c1ccccc1)c1ccccc1 [Compound 5, 1-{4-[(4-Chlorophenyl)4-hydroxy-1-piperidino]-2,2-diphenylbutyryl}pyrrolidine]	593	–
CCN(C)C(=O)C(CCN1CCC(O)(c2ccc(Cl)cc2)CC1)(c1ccccc1)c1ccccc1 [Compound 2, 4-(p-Chlorophenyl)-4-hydroxy-N-ethyl-N-methyl-ααdiphenyl-1-piperidinebutyramide]	≥ 1,231	–
CN(C)C(=O)C(CCN1CCC(O)(c2ccc(Cl)cc2)CC1)(c1ccccc1)c1ccccc1 [Compound 6, 4-(p-Chlorophenyl)-4-hydroxy-N,N-dimethyl-αα-diphenyl-1-piperidinebutyramide]	533	–
CN(C)C(=O)C(CCN1CCC(O)(c2ccc(F)cc2)CC1)(c1ccccc1)c1ccccc1 [Compound 7, 4-(p-Fluorophenyl)-4-hydroxy-N,N-dimethyl-αα-diphenyl-1-piperidinebutyramide]	500	–
CN(C)C(=O)C(CCN1CCC(O)(c2ccc(Cl)c(C(F)(F)F)c2)CC1)(c1ccccc1)c1ccccc1 [Compound 8, 4-(4-Chloro3-trifluoromethyl-phenyl)-4-hydroxy-N,N-dimethyl-αα-diphenyl-1-piperidinebutyramide]	467	–
O=C(N1CCOCC1)C(CCN1CCC(O)(c2cccc(C(F)(F)F)c2)CC1)(c1ccccc1)c1ccccc1 [Compound 10]	> 251	–
CN(C)C(=O)C(CCN1CCC(O)(c2ccc(Br)cc2)CC1)(c1ccccc1)c1ccccc1 [Compound 3, 4-(p-Bromophenyl)-4-hydroxy-N,N-dimethyl-αα-diphenyl-1-piperidinebutyramide]	800	–
O=C(N1CCCC1)C(CCN1CCC(O)(c2ccc(Cl)c(Cl)c2)CC1)(c1ccccc1)c1ccccc1 [Compound 4]	–	Peripheral Selectivity (ED50tw/ED50 Castor Oil) ([1]; oral, rats, tail withdrawal ED50 over castor oil test ED50 (both mg/kg)): > 640
